Among the data in patent US8404685B2, “Dihydropyrazole derivatives as tyrosine kinase modulators for the treatment of tumors” (Merck Patent Gesellschaft Mit Beschrankter Haftung, priority 2008, dated 2013) are IC50 values, retold here.

Experiment [1] concerns the target T1, Met kinase (Homo sapiens, UniProt P08581). The experiment is described as follows: Met kinase inhibition, flashplate method (enzyme). On the set-up: 6His (N); purchased Upstate 14-526; host or cells: Sf21 insect cells (S. frugiperda), baculovirus. It counts as biochemical. The text has this: According to the manufacturer's data (Met, active, Upstate, catalogue No. 14-526), Met kinase is expressed for the purposes of protein production in insect cells (Sf21; S. frugiperda) and subsequent affinity-chromatographic purification as “N-terminal 6His-tagged” recombinant human protein in a baculovirus expression vector.
The test plates used are 96-well Flashplate® microtitre plates from Perkin Elmer (Cat. No. SMP200). The components of the kinase reaction described below are pipetted into the assay plate. The Met kinase and the substrate poly Ala-Glu-Lys-Tyr, (pAGLT, 6:2:5:1), are incubated for 3 hrs at room temperature with radioactively labelled ^33P-ATP in the presence and absence of test substances in a total volume of 100 μl. The reaction is terminated using 150 μl of a 60 mM EDTA solution. After incubation for a further 30 min at room temperature, the supernatants are filtered off with suction, and the wells are washed three times with 200 μl of 0.9% NaCl solution each time. The measurement of the bound radioactivity is carried out by means of a scintillation measuring instrument (Topcount NXT, Perkin-Elmer).
The full value used is the inhibitor-free kinase reaction. This should be approximately in the range 6000-9000 cpm. The pharmacological zero value used is staurosporin in a final concentration of 0.1 mM. The inhibitory values (IC50) are determined using the RS1_MTS program.
Kinase reaction conditions per well:
10 μl of substance to be tested in assay buffer with 10% of DMSO
10 μl of ATP (final concentration 1 μM cold, 0.35 μCi of ^33P-ATP)
50 μl of Met kinase/substrate mixture in assay buffer;
• (10 ng of enzyme/well, 50 ng of pAGLT/well) • Solutions used: • Assay buffer: • 50 mM HEPES • 3 mM magnesium chloride • 3 μM sodium orthovanadate • 3 mM manganese(II) chloride • 1 mM dithiothreitol (DTT) • pH=7.5 (to be set using sodium hydroxide) • Stop solution: • 60 mM Titriplex III (EDTA) • ^33P-ATP: Perkin-Elmer; • Met kinase: Upstate, Cat. No. 14-526, Stock 1 μg/10 μl; spec. activity 954 U/mg; • Poly-Ala-Glu-Lys-Tyr, 6:2:5:1: Sigma Cat. No. P1152 In-Vivo Tests

In experiment [2] the target is T1, Met kinase. The experiment is described as follows: Met kinase inhibition (cell). It counts as cell-based.

T1 sequence (P08581 25-1390): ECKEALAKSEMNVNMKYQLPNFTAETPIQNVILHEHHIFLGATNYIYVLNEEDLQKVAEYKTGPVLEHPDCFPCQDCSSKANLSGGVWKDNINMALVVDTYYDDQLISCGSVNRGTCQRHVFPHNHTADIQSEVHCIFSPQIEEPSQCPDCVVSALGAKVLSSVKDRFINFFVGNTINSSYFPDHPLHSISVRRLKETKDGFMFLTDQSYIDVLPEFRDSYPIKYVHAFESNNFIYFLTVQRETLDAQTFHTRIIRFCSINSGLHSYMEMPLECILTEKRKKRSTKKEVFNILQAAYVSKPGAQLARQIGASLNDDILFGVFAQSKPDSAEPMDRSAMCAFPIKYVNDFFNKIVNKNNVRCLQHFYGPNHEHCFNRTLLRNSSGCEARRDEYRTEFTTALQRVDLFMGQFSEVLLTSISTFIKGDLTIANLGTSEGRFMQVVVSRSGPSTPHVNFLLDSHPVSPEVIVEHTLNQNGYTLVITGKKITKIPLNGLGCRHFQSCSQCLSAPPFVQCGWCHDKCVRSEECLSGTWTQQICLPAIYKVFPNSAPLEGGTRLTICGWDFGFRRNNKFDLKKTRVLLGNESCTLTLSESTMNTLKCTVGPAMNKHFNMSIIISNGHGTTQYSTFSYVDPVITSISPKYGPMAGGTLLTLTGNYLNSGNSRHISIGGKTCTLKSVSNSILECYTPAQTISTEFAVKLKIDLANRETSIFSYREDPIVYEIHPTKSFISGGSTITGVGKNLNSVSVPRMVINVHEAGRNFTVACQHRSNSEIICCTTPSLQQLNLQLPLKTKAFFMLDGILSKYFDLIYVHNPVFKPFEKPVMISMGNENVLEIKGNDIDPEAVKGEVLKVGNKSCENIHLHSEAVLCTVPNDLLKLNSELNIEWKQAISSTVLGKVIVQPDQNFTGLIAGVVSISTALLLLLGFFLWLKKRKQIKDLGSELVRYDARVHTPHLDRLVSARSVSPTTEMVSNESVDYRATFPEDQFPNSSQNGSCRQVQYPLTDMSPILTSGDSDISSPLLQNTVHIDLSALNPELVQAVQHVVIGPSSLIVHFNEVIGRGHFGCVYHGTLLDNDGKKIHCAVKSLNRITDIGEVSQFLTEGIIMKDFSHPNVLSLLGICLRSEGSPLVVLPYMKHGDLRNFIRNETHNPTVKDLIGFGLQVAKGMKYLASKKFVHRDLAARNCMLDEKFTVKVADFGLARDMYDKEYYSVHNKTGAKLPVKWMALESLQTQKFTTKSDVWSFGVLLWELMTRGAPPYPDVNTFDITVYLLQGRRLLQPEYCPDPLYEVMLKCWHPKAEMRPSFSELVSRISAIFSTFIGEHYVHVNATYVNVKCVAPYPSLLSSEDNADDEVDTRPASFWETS

Consider `O=C(Cc1cccc(-c2ncc(-c3cnn(CCN4CCCC4)c3)cn2)c1)N1CCC(c2cc(Cl)ccc2Cl)=N1` [Compound A1, 1-[3-(2,5-dichlorophenyl)-4,5-dihydropyrazol-1-yl]-2-(3-{5-[1-(2-pyrrolidin-1-ylethyl)-1H-pyrazol-4-yl]pyrimidin-2-yl}phenyl)ethanone], for which the IC50 against Met kinase [1] and against Met kinase [2] was 1 to 100 nM throughout.
For `N#Cc1cccc(C2=NN(C(=O)Cc3cccc(-c4ncc(Br)cn4)c3)CC2)c1` [Compound A7, 3-(1-{2-[3-(5-bromopyrimidin-2-yl)phenyl]acetyl}-4,5-dihydro-1H-pyrazol-3-yl)benzonitrile], the IC50 against Met kinase [1] and at Met kinase [2] was 1 to 100 nM in each case.
Take `O=C(Cc1cccc(-c2ncc(OCCN3CCOCC3)cn2)c1)N1CCC(c2cc(Cl)ccc2Cl)=N1` [Compound A8, 1-[3-(2,5-dichlorophenyl)-4,5-dihydropyrazol-1-yl]-2-{3-[5-(2-morpholin-4-ylethoxy)pyrimidin-2-yl]phenyl}ethanone]: the IC50 against Met kinase [1] and at Met kinase [2] was 1 to 100 nM throughout.
